Experimental data: ChEMBL document CHEMBL1129278, “Binding of arylpiperazines, (aryloxy)propanolamines, and tetrahydropyridylindoles to the 5-HT1A receptor: contribution of the molecular lipophilicity potential to three-dimensional quantitative structure-affinity relationship models” (J Med Chem, 1996)

target: T1, 5-hydroxytryptamine receptor 1A (Rattus norvegicus, UniProt P19327)
T1 sequence (P19327 whole entry): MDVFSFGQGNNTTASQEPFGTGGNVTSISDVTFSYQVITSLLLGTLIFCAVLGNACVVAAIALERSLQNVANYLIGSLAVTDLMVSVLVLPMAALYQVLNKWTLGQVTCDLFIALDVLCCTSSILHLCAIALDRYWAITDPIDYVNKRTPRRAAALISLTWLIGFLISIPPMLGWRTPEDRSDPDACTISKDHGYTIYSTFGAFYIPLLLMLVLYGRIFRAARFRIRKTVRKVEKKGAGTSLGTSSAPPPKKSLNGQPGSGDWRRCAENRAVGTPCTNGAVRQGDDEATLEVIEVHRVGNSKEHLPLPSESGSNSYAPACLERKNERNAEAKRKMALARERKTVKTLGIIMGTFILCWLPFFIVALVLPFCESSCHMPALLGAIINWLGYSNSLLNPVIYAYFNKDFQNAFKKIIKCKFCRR

| SMILES | Ki |
| --- | --- |
| CNCC(COc1cccc(C(F)(F)F)c1)c1ccccc1 (stereo not drawn) | 66100 nM |
| CCCCN(CCCC)CC(O)COc1cccc2ccccc12 (stereo not drawn) | 224 nM |
| CCCN(CCN1C(=O)c2ccccc2C1=O)C1COc2cccc(OC)c2C1 (stereo not drawn) | 398 nM |
| COc1cccc2c1CC(N)CC2 (stereo not drawn) | 178 nM |
| CCCOCOCCc1ccc(OCC(O)CNC(C)C)cc1 (stereo not drawn) | 10000 nM |
| O=C1c2ccccc2C(=O)N1CCCCN1CCN(c2cccc(Cl)c2)CC1 | 4.68 nM |
| CCCN(CCC)C1CCc2cccc(C)c2C1 (stereo not drawn) | 61.7 nM |
| CC(=O)N1CCN(c2cccc(Cl)c2)CC1 | 100000 nM |
| CC(C)NCC(O)COc1cccc2[nH]c(OC(=O)OC(C)C)cc12 (stereo not drawn) | 17.4 nM |
| CCCN(CCC)C1CCc2cccc(C#N)c2C1 (stereo not drawn) | 37.2 nM |
| C1=C(c2c[nH]c3ccccc23)CCNC1 | 141 nM |
| CCCN(CCNS(=O)(=O)c1ccc(C)cc1)C1COc2cccc(OC)c2C1 (stereo not drawn) | 1 nM |
| CN(C)CC(O)COc1ccccc1O (stereo not drawn) | 4900 nM |
| COc1cccc2c1CC(N1CCCCC1)CC2 (stereo not drawn) | 77.6 nM |
| COc1ccccc1N1CCN(CCCCCc2ccccc2)CC1 | 5.62 nM |
| O=[N+]([O-])c1ccc2[nH]cc(C3=CCNCC3)c2c1 | 18.2 nM |
| CCCN(CCC)C1COc2cccc(OC)c2C1 (stereo not drawn) | 10 nM |
| CC1(C)CC(=O)N(CCCCN2CCN(c3ccccn3)CC2)C(=O)C1 | 70.8 nM |
| CN1CC=C(c2c[nH]c3ccc(C4COCCO4)cc23)CC1 (stereo not drawn) | 87.1 nM |
| COc1c(Cl)cccc1N1CCNCC1 | 871 nM |
| CCCN(CCC)C1CCc2ccccc2C1 (stereo not drawn) | 56.2 nM |
| COc1cccc2c1CC(N1CCCC1)CO2 (stereo not drawn) | 3.47 nM |
| O=C1c2ccccc2C(=O)N1CCCCN1CCN(c2ccccc2Cl)CC1 | 5.01 nM |
| CN(C)CCc1c[nH]c2ccc3c(c12)CCCO3 | 955 nM |

| SMILES | Ki |
| --- | --- |
| CCCN(CCCCN1CCCCC1)C1COc2cccc(OC)c2C1 (stereo not drawn) | 1 nM |
| CCCc1ccc2c(c1CCC)CC(N(CCC)CCC)CO2 (stereo not drawn) | 10000 nM |
| CCCN1CC=C(c2c[nH]c3ccc(C(=O)OC)cc23)CC1 | 380 nM |
| O=C(c1ccccc1)N1CCN(c2cccc(Cl)c2)CC1 | 100000 nM |
| CN(C)CC(O)CO (stereo in doubt; 122) | 5010 nM |
| CN(C)CC(O)CO (stereo in doubt; 123) | 4900 nM |
| CCCN(CCCCN1C(=O)CC2(CCCC2)CC1=O)C1COc2cccc(O)c2C1 (stereo in doubt; 228) | 10 nM |
| CCCN(C1COc2cccc(OC)c2C1)N1C(=O)C2CCCC2C1=O (stereo in doubt; 247) | 1 nM |
| CCCN(C1COc2cccc(OC)c2C1)N1C(=O)C2CCCC2C1=O (stereo in doubt; 255) | 0.501 nM |
| CCCN(CCCCN1C(=O)CC2(CCCC2)CC1=O)C1COc2cccc(O)c2C1 (stereo in doubt; 258) | 0.501 nM |
| CN(C)CCc1c[nH]c2ccc(O)cc12 [BUFOTENINE] | 25.1 nM |
| COc1ccccc1OCCNCC(O)COc1cccc2[nH]c3ccccc3c12 (stereo not drawn) [CARVEDILOL] | 3.16 nM |
| CCN(CC)C(=O)Nc1ccc(OCC(O)CNC(C)(C)C)c(C(C)=O)c1 (stereo not drawn) [CELIPROLOL] | 8910 nM |
| Cn1cc(C(F)(F)F)nc1-c1ccc(OCC(O)CNCCOc2ccc(O)c(C(N)=O)c2)cc1 (stereo not drawn) [CGP-20712A] | 603 nM |
| CN(C)CCCC1(c2ccc(F)cc2)OCc2cc(C#N)ccc21 (stereo not drawn) [CITALOPRAM] | 50100 nM |
| C[C@H](CCc1ccccc1)NC[C@H](O)c1ccc(O)c(C(N)=O)c1 [DILEVALOL] | 295 nM |
| CC(C)NCC(O)COc1ccccc1-n1cccc1 (stereo not drawn) [ISAMOLTAN] | 49 nM |
| COc1ccc2[nH]cc(CCN(C)C)c2c1 [MEBUFOTENIN] | 5.5 nM |
| C=CCOc1ccccc1OCC(O)CNC(C)C (stereo not drawn) [OXPRENOLOL] | 93.3 nM |
| CC(C)(C)NC[C@H](O)COc1ccccc1C1CCCC1 [PENBUTOLOL] | 2.4 nM |
| c1ccc(N2CCNCC2)cc1 [PHENYLPIPERAZINE] | 1510 nM |
| CC(C)NCC(O)COc1cccc2[nH]ccc12 (stereo not drawn) [PINDOLOL] | 21.9 nM |
| CC(C)(C)NCC(O)COc1cccc2c1SCCC2 (stereo not drawn) [TERTATOLOL] | 18.6 nM |
| CC(C)(C)NC[C@H](O)COc1nsnc1N1CCOCC1 [TIMOLOL] | 617 nM |
